Holding throughout (type): biochemical
The target of experiment [1] is T1, PI3Kγ (Homo sapiens, UniProt P48736).
T1 construct: purchased Millipore Corporation 14-558-K
Nature of the experiment: PI3 Kinase HTRF assay, PI3Kγ. The conditions noted are these: 10 μM PIP2, 10 μM ATP; read-out: PI3K γ IC50. The source says:
(§1) A PI3 Kinase HTRF® assay kit (cat No. 33-016) purchased from Millipore Corporation was used to screen compounds disclosed herein. This assay used specific, high affinity binding of the GRP1 pleckstrin homology (PH) domain to PIP3, the product of a Class 1A or 1B PI3 Kinase acting on its physiological substrate PIP2. During the detection phase of the assay, a complex was generated between the GST-tagged PH domain and biotinylated short chain PIP3. The biotinylated PIP3 and the GST-tagged PH domain recruited fluorophores (Streptavidin-Allophycocyanin and Europium-labeled anti-GST respectively) to form the fluorescence resonance energy transfer (FRET) architecture, generating a stable time-resolved FRET signal. The FRET complex was disrupted in a competitive manner by non-biotinylated PIP3, a product formed in the PI3 Kinase assay.
(§2) PI3 Kinase α, β, γ and δ activity was assayed using the PI3 Kinase HTRF® assay kit (catalogue No. 33-016) purchased from Millipore Corporation. Purified recombinant PI3Kα (catalogue No. 14-602-K), PI3Kβ (catalogue No. 14-603-K), PI3Kγ (catalogue No. 14-558-K) and PI3Kδ (catalogue No. 14-604-K) were obtained from Millipore Corporation. Purified recombinant PI3K enzyme was used to catalyze the phosphorylation of phosphatidylinositol 4,5-bisphosphate (PIP2 at 10 μM) to phosphatidylinositol 3,4,5-trisphosphate (PIP3) in the presence of 10 μM ATP. The assay was carried out in 384-well format and detected using a Perkin Elmer En Vision Xcite Multilabel Reader. Emission ratios were converted into percent inhibitions and imported into GraphPad Prism software. The concentration necessary to achieve inhibition of enzyme activity by 50% (IC50) was calculated using concentrations ranging from 20 μM to 0.1 nM (12-point curve). IC50 values were determined using a nonlinear regression model available in GraphPad Prism 5. […]
(Time-resolved FRET reads energy transfer from a long-lived donor to a nearby acceptor.)

Experiment [2] deals with T2, PI3Kβ (Homo sapiens, UniProt P42338).
T2 construct: purchased Millipore Corporation 14-603-K
Put plainly: PI3 Kinase HTRF assay, PI3Kβ. The following applies: 10 μM PIP2, 10 μM ATP; read-out: PI3K β IC50.
From the text: as §1, §2

The target of experiment [3] is T3, PI3Kδ (Homo sapiens, UniProt O00329).
T3 construct: purchased Millipore Corporation 14-604-K
Nature of the experiment: PI3 Kinase HTRF assay, PI3Kδ. The following applies: 10 μM PIP2, 10 μM ATP; read-out: PI3K δ IC50.
From the text: as §1, §2

Experiment [4] has as its target T4, PI3Kα (Homo sapiens, UniProt P42336).
T4 construct: purchased Millipore Corporation 14-602-K
Nature of the experiment: PI3 Kinase HTRF assay, PI3Kα. The following applies: 10 μM PIP2, 10 μM ATP; read-out: PI3K α IC50.
From the text: as §1, §2

The source of these data is US8901133B2, “Heterocyclic compounds and uses thereof” (Infinity Pharmaceuticals, Inc., priority 2010, dated 2014).

Bounds are passed on as bounds.

T3 sequence (O00329 whole entry): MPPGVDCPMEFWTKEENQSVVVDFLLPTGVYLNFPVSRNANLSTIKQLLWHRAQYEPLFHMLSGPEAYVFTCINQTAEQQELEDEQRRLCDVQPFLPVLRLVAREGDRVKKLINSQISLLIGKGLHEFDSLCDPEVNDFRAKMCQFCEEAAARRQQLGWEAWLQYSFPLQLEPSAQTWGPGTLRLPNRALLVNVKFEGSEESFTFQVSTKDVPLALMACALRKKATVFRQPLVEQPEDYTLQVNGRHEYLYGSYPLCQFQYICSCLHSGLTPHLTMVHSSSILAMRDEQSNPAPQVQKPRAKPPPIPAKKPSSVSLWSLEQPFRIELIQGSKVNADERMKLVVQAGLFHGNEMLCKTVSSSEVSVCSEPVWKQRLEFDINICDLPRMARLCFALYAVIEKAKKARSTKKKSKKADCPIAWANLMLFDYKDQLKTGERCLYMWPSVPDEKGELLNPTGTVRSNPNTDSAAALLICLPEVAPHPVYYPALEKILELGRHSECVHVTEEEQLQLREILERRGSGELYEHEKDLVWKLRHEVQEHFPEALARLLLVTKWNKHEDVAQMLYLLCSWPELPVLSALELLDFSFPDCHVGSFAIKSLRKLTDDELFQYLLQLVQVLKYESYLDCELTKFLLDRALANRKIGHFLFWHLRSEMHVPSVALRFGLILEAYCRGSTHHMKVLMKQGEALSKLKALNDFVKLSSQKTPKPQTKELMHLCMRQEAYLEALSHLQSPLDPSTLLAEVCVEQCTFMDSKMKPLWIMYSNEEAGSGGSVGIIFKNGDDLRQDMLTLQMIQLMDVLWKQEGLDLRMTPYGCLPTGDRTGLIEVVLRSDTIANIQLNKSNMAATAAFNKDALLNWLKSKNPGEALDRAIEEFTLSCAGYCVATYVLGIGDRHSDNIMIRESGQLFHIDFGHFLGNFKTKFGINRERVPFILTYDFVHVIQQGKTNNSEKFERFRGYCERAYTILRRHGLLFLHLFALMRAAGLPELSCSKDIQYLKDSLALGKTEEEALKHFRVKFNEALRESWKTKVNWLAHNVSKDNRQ
T3 sequence (P27986 whole entry partner): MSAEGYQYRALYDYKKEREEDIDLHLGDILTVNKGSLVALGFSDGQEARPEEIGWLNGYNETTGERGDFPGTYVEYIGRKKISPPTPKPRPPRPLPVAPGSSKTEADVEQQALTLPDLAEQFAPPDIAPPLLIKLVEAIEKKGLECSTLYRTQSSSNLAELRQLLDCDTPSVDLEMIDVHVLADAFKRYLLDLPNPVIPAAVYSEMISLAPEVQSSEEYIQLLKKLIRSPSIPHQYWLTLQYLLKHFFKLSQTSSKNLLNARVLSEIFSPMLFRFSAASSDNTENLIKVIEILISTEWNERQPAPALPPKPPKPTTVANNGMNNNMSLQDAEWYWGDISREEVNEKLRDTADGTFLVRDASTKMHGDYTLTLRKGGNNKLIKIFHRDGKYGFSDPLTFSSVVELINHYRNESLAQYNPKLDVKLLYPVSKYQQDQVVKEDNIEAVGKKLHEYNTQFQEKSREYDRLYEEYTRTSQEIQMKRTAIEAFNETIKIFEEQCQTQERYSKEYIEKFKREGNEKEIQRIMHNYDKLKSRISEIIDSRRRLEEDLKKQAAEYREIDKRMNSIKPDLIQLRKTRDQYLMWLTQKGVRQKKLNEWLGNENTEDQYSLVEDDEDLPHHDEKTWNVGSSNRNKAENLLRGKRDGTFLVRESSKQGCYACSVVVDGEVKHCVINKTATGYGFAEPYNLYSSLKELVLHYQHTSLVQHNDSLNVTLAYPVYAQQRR
T1 sequence (P48736 whole entry): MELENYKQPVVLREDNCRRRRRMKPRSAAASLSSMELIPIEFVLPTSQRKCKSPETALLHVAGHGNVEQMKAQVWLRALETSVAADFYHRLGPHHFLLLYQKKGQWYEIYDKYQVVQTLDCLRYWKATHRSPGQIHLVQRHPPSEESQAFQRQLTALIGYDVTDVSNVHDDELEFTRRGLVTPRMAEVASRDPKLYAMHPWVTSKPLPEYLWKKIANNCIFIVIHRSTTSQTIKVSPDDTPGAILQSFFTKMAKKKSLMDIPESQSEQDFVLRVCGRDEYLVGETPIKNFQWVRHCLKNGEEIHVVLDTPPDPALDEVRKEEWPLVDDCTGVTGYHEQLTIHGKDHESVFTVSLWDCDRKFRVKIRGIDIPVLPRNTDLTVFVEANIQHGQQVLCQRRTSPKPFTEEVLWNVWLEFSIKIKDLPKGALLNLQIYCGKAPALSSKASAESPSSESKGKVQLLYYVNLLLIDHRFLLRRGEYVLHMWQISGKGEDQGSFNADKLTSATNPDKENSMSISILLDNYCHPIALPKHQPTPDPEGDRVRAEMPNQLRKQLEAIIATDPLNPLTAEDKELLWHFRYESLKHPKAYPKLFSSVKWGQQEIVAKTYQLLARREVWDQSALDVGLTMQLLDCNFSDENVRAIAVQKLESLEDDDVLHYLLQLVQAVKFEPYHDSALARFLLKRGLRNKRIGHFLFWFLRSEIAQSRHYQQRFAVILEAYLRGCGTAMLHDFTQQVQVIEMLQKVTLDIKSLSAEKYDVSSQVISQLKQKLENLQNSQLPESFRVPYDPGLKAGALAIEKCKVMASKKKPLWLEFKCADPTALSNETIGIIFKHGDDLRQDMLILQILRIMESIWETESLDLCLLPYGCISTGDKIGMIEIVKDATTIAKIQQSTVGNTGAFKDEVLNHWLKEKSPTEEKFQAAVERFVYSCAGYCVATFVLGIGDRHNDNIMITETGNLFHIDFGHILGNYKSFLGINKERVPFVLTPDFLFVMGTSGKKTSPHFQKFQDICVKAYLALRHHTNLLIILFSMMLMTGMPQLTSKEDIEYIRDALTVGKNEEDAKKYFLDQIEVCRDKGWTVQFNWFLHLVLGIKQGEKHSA
T2 sequence (P42338 whole entry): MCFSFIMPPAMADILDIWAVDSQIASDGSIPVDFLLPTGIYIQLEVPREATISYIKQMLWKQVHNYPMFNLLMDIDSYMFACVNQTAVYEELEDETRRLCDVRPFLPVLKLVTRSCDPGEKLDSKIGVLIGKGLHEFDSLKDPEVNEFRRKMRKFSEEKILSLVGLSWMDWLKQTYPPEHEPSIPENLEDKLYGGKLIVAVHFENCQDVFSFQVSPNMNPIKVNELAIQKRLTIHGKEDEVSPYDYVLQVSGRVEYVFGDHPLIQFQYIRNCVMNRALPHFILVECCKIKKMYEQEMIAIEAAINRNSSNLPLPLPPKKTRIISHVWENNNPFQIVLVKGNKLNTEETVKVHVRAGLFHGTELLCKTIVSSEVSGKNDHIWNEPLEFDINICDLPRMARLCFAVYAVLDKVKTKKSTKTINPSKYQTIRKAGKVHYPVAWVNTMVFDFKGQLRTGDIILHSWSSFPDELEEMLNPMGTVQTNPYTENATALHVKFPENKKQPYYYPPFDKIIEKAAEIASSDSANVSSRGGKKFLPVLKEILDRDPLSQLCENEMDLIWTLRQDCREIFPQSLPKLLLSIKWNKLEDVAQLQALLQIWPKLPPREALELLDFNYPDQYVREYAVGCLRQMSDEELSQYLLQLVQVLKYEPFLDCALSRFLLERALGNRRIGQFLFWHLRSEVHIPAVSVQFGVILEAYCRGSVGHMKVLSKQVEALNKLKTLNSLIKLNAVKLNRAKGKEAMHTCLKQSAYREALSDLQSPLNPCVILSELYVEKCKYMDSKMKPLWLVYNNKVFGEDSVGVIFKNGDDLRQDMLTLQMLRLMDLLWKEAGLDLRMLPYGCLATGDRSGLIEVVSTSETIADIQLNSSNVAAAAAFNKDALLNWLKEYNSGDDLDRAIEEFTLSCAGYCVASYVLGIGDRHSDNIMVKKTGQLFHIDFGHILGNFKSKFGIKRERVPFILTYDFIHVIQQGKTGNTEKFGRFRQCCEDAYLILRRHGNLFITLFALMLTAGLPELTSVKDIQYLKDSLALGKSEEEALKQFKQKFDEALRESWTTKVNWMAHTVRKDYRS
T2 sequence (P27986 whole entry partner): as the sequence (P27986 whole entry partner) above
T4 sequence (P42336 whole entry): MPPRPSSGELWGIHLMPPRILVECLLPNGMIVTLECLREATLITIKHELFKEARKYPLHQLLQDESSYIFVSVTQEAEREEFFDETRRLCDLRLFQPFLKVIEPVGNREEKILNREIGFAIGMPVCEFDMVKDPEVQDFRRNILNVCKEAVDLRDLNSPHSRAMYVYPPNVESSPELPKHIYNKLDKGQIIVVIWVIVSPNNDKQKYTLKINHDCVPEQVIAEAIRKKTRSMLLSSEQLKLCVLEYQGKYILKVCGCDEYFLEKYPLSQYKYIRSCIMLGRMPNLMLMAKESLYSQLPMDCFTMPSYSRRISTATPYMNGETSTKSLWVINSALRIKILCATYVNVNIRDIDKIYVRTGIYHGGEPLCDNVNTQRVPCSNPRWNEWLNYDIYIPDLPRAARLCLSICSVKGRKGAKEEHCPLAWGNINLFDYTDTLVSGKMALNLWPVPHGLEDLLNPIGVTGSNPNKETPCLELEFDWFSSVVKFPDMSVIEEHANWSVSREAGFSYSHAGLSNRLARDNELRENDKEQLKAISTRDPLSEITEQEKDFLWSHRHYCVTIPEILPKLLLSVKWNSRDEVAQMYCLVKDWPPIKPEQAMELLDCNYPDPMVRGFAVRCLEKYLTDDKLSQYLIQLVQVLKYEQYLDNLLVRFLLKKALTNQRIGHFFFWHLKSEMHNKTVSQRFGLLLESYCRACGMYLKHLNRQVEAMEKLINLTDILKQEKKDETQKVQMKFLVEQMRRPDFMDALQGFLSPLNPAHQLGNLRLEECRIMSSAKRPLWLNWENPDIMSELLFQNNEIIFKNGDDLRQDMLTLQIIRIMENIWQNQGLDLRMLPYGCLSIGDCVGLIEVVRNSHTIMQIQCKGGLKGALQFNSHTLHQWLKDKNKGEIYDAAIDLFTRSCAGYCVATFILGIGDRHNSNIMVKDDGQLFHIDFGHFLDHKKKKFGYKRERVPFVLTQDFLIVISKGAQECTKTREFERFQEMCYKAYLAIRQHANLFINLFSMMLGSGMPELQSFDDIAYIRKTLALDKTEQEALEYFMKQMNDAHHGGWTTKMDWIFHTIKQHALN
T4 sequence (P27986 whole entry partner): as the sequence (P27986 whole entry partner) above

In the case of `C[C@H](Nc1ncnc2[nH]cnc12)c1cc2cccc(Cl)c2c(CN2CCC2)n1` [Compound 9], the half-maximal inhibitory concentration (IC50) (in general, the concentration needed to halve the response being measured) in experiment [1] was less than 10 µM; in experiment [2], less than 10 µM; in experiment [3], less than 1 µM; in experiment [4], greater than 10 µM.

Consider `C[C@H](Nc1ncnc2[nH]cnc12)c1cc2cccc(Cl)c2c(C(=O)N2CC(O)C2)n1` [Compound 22], for which the half-maximal inhibitory concentration (IC50) in experiment [1] is less than 1 µM; in experiment [2], less than 10 µM; in experiment [3], less than 0.1 µM; in experiment [4], greater than 10 µM.

For `C[C@H](Nc1ncnc2[nH]cnc12)c1cc2cccc(Cl)c2c(C(=O)N(C)c2ccccc2)n1` [Compound 27], the IC50 in experiment [1] is less than 10 µM; in experiment [2], greater than 10 µM; in experiment [3] it was less than 1 µM; in experiment [4] it was greater than 10 µM.

On to `C[C@H](Nc1ncnc2[nH]cnc12)c1cc2cccc(Cl)c2c(C(=O)N2CCC(O)CC2)n1` [Compound 28], for which the half-inhibitory concentration (IC50) is less than 1 µM in experiment [1], greater than 10 µM in experiment [2], less than 0.1 µM in experiment [3] and greater than 10 µM in experiment [4].

Regarding `Cc1nc(-c2nc([C@H](C)Nc3ncnc4[nH]cnc34)cc3cccc(Cl)c23)no1` [Compound 32], the IC50 is less than 10 µM in experiment [1], less than 10 µM in experiment [2], less than 1 µM in experiment [3] and greater than 10 µM in experiment [4].

Consider `C[C@H](Nc1ncnc2[nH]cnc12)c1cc2cccc(Cl)c2c(CC(=O)N2CCOCC2)n1` [Compound 35], for which the 50% inhibitory concentration (IC50) in experiment [1] is less than 10 µM; in experiment [2], greater than 10 µM; in experiment [3], less than 1 µM; in experiment [4], greater than 10 µM.

For the compound `C[C@H](Nc1ncnc2[nH]cnc12)c1cc2cccc(Cl)c2c(C(=O)NC2CCOCC2)n1` [Compound 48], the half-maximal inhibitory concentration (IC50) in experiment [1] was less than 10 µM; in experiment [2], greater than 10 µM; in experiment [3], less than 0.1 µM; in experiment [4] it was greater than 10 µM.

Consider `C[C@H](Nc1ncnc2[nH]cnc12)c1cc2cc(F)ccc2c(CCN2CCOCC2)n1` [Compound 55], for which the IC50 in experiment [1] is greater than 10 µM; in experiment [2], greater than 10 µM; in experiment [3], less than 1 µM; in experiment [4], greater than 10 µM.

Consider `C[C@H](Nc1ncnc2[nH]cnc12)c1cc2cccc(Cl)c2c(C(=O)NC2CCC(O)CC2)n1` (stereo partly shown) [Compound 58], for which the IC50 in experiment [1] was less than 10 µM; in experiment [2] it was greater than 10 µM; in experiment [3], less than 0.1 µM; in experiment [4], greater than 10 µM.

Turning to `C[C@H](Nc1ncnc2scnc12)c1cc2cccc(Cl)c2c(CCN2CCOCC2)n1` [Compound 72, (S)—N-(1-(8-chloro-1-(2-morpholinoethyl)isoquinolin-3-yl)ethyl)thiazolo[5,4-d]pyrimidin-7-amine], the IC50 in experiment [1] is less than 10 µM; in experiment [2], less than 1 µM; in experiment [3], less than 0.1 µM; in experiment [4], less than 10 µM.

Take `C[C@H](Nc1cc(Cl)nn2ccnc12)c1cc2cccc(Cl)c2c(CCN2CCOCC2)n1` [Compound 76, (S)-6-chloro-N-(1-(8-chloro-1-(2-morpholinoethyl)isoquinolin-3-yl)ethyl)imidazo[1,2-b]pyridazin-8-amine]: the IC50 in experiment [1] is greater than 10 µM; in experiment [2] it was greater than 10 µM; in experiment [3] it was less than 10 µM; in experiment [4] it was greater than 10 µM.

Regarding `C[C@H](Nc1cc(Cl)nn2ccnc12)c1cc2ccccc2c(CCN2CCOCC2)n1` [Compound 78], the IC50 in experiment [1] is greater than 10 µM; in experiment [2], greater than 10 µM; in experiment [3], less than 10 µM; in experiment [4] it was greater than 10 µM.

For the compound `C[C@H](Nc1ncnc2[nH]cnc12)c1nc(CCN2CCOCC2)c2ccccc2c1F` [Compound 87], the IC50 in experiment [1] was greater than 10 µM; in experiment [2], greater than 10 µM; in experiment [3], less than 1 µM; in experiment [4] it was greater than 10 µM.

Take `C[C@H](Nc1ncnc2[nH]cnc12)c1cc2cccc(Cl)c2c(OCC(C)(C)O)n1` [Compound 88]: the IC50 in experiment [1] is less than 10 µM; in experiment [2], less than 10 µM; in experiment [3] it was less than 1 µM; in experiment [4], less than 10 µM.

Consider `C[C@H](NC(=O)c1nccnc1N)c1cc2cccc(Cl)c2c(CCN2CCOCC2)n1` [Compound 89, (S)-3-amino-N-(1-(8-chloro-1-(2-morpholinoethyl)isoquinolin-3-yl)ethyl)pyrazine-2-carboxamide], for which the IC50 is less than 10 µM in experiment [1], less than 10 µM in experiment [2], less than 1 µM in experiment [3] and greater than 10 µM in experiment [4].

Take `C[C@H](Nc1ncnc2[nH]cnc12)c1cc2cccc(Cl)c2c(SCC[N+]2([O-])CCOCC2)n1` [Compound 94]: the concentration for half-maximal inhibition (IC50) in experiment [1] was less than 1 µM; in experiment [2], less than 10 µM; in experiment [3] it was less than 0.1 µM; in experiment [4] it was less than 10 µM.

As to `C[C@H](Nc1ncnc2cccnc12)c1cc2cccc(Cl)c2c(N2CCN(C)CC2)n1` [Compound 96], the 50% inhibitory concentration (IC50) was less than 0.1 µM in experiment [1], less than 1 µM in experiment [2], less than 0.1 µM in experiment [3] and less than 1 µM in experiment [4].

On to `C[C@H](Nc1ccnc2ccnn12)c1cc2cccc(Cl)c2c(N2CCN(C)CC2)n1` [Compound 97], for which the IC50 in experiment [1] was greater than 10 µM; in experiment [2], less than 10 µM; in experiment [3], less than 0.1 µM; in experiment [4] it was greater than 10 µM.

In the case of `C[C@H](Nc1ncnc2[nH]cnc12)c1cc2cccc(F)c2c(N2CCN(C)CC2)n1` [Compound 100], the concentration for half-maximal inhibition (IC50) was greater than 10 µM in experiment [1], greater than 10 µM in experiment [2], less than 0.1 µM in experiment [3] and greater than 10 µM in experiment [4].

With `C[C@H](Nc1ncnc2cccnc12)c1cc2cccc(Cl)c2c(OCCN2CCCC2)n1` [Compound 105], the IC50 was less than 1 µM in experiment [1], less than 10 µM in experiment [2], less than 0.1 µM in experiment [3] and less than 1 µM in experiment [4].

On to `C[C@H](Nc1ccnc2ccnn12)c1cc2cccc(Cl)c2c(OCCN2CCCC2)n1` [Compound 106], for which the IC50 in experiment [1] is less than 10 µM; in experiment [2], less than 10 µM; in experiment [3] it was less than 0.1 µM; in experiment [4], greater than 10 µM.

Regarding `Cc1cccc2cc([C@H](C)Nc3ncnc4[nH]cnc34)nc(N3CCN(C)CC3)c12` [Compound 109], the IC50 in experiment [1] was less than 10 µM; in experiment [2], less than 10 µM; in experiment [3], less than 0.1 µM; in experiment [4] it was greater than 10 µM.

Turning to `C[C@H](Nc1ncnc2[nH]cnc12)c1cc2cccc(C(F)(F)F)c2c(N2CCN(C)CC2)n1` [Compound 111], the IC50 in experiment [1] was less than 10 µM; in experiment [2], less than 10 µM; in experiment [3], less than 1 µM; in experiment [4] it was greater than 10 µM.

For `C[C@H](Nc1ncnc2cccnc12)c1cc2cccc(Cl)c2c(C(=O)N2CCOCC2)n1` [Compound 115], the half-inhibitory concentration (IC50) in experiment [1] is less than 1 µM; in experiment [2] it was less than 10 µM; in experiment [3], less than 0.1 µM; in experiment [4] it was less than 10 µM.

For `C[C@H](NC(=O)c1cnc2cccnn12)c1cc2cccc(Cl)c2c(C(=O)N2CCOCC2)n1` [Compound 117], the IC50 is less than 10 µM in experiment [1], less than 10 µM in experiment [2], less than 1 µM in experiment [3] and greater than 10 µM in experiment [4].

`C[C@H](NC(=O)c1nccnc1N)c1cc2cccc(Cl)c2c(C(=O)N2CCOCC2)n1` [Compound 118]: the half-maximal inhibitory concentration (IC50) was less than 10 µM in experiment [1], less than 10 µM in experiment [2], less than 1 µM in experiment [3] and greater than 10 µM in experiment [4].

As to `C[C@H](Nc1ncnc2[nH]cnc12)c1cc2cccc(Cl)c2c(C(=O)N(C)C2CCOCC2)n1` [Compound 126], the half-inhibitory concentration (IC50) in experiment [1] is less than 10 µM; in experiment [2], greater than 10 µM; in experiment [3] it was less than 1 µM; in experiment [4], greater than 10 µM.

For the compound `C[C@H](Nc1ncnc2[nH]cnc12)c1cc2cccc(Cl)c2c(OCC(=O)O)n1` [Compound 128, (S)-2-(3-(1-(9H-purin-6-ylamino)ethyl)-8-chloroisoquinolin-1-yloxy)acetic acid], the IC50 in experiment [1] was less than 1 µM; in experiment [2], greater than 10 µM; in experiment [3], less than 10 µM; in experiment [4], greater than 10 µM.

In the case of `C[C@H](Nc1nc(N)ncc1C(F)(F)F)c1cc2cccc(Cl)c2c(CCN2CCOCC2)n1` [Compound 130], the IC50 is less than 10 µM in experiment [1], less than 10 µM in experiment [2], less than 0.1 µM in experiment [3] and greater than 10 µM in experiment [4].

Take `C[C@H](Nc1ncnc2cccnc12)c1cc2cccc(Cl)c2c(C(=O)N2CCOC[C@H]2C)n1` [Compound 251]: the half-maximal inhibitory concentration (IC50) in experiment [1] is less than 1 µM.

As to `C[C@H](Nc1ncnc2scnc12)c1cc2cccc(Cl)c2c(C(=O)N2CCOC[C@H]2C)n1` [Compound 252], the IC50 in experiment [1] is less than 10 µM.
